The target in data set [1] is T1, human CGRP receptor (CL receptor/RAMP1) (Homo sapiens, UniProt O60894+Q16602).
T1 construct: expressed in transfected cells
Nature of the data set: Recombinant receptor binding assay vs [^125I]CGRP. The procedure:
RECOMBINANT RECEPTOR: Human CL receptor (Genbank accession number L76380) was subcloned into the expression vector pIREShyg2 (BD Biosciences Clontech) as a 5′NheI and 3′ PmeI fragment. Human RAMP1 (Genbank accession number AJ001014) was subcloned into the expression vector pIRESpuro2 (BD Biosciences Clontech) as a 5′NheI and 3′NotI fragment. HEK 293 cells (human embryonic kidney cells; ATCC #CRL-1573) were cultured in DMEM with 4.5 g/L glucose, 1 mM sodium pyruvate and 2 mM glutamine supplemented with 10% fetal bovine serum (FBS), 100 units/mL penicillin and 100 μg/mL streptomycin, and maintained at 37° C. and 95% humidity. Cells were subcultured by treatment with 0.25% trypsin with 0.1% EDTA in HBSS. Stable cell line generation was accomplished by co-transfecting 10 μg of DNA with 30 μg Lipofectamine 2000 (Invitrogen) in 75 cm^2 flasks. CL receptor and RAMP1 expression constructs were co-transfected in equal amounts. Twenty-four hours after transfection the cells were diluted and selective medium (growth medium+300 μg/mL hygromycin and 1 μg/mL puromycin) was added the following day. […]
(§1) The octanol/water partition coefficient (Log P) of the compound of Example 1 was determined by partitioning the compound between octanol and phosphate buffer at pH 7.4 and measuring the concentration of the compound in each layer by LC-MS/MS. […]

The target of data set [2] is T1, human CGRP receptor (CL receptor/RAMP1). Nature of the data set: Recombinant receptor cAMP functional assay. The data set is classed as cell-based. Particulars: in the presence of 50% human serum. The procedure: RECOMBINANT RECEPTOR: Human CL receptor (Genbank accession number L76380) was subcloned into the expression vector pIREShyg2 (BD Biosciences Clontech) as a 5′NheI and 3′ PmeI fragment. Human RAMP1 (Genbank accession number AJ001014) was subcloned into the expression vector pIRESpuro2 (BD Biosciences Clontech) as a 5′NheI and 3′NotI fragment. HEK 293 cells (human embryonic kidney cells; ATCC #CRL-1573) were cultured in DMEM with 4.5 g/L glucose, 1 mM sodium pyruvate and 2 mM glutamine supplemented with 10% fetal bovine serum (FBS), 100 units/mL penicillin and 100 μg/mL streptomycin, and maintained at 37° C. and 95% humidity. Cells were subcultured by treatment with 0.25% trypsin with 0.1% EDTA in HBSS. […]
RECOMBINANT RECEPTOR FUNCTIONAL ASSAY: Cells were plated in complete growth medium at 85,000 cells/well in 96-well poly-D-lysine coated plates (Corning) and cultured for ˜19 h before assay. […] Dose response curves were plotted and IC50 values determined from a 4-parameter logistic fit as defined by the equation y=((a−d)/(1+(x/c)^b)+d, where y=response, x=dose, a=max response, d=min response, c=inflection point and b=slope.
as §1

For data set [3], the target named is adrenomedullin 2 receptor, CLR-RAMP3 (Homo sapiens, UniProt O60896+Q16602). The data set can be described thus: Adrenomedullin 2 receptor binding (selectivity). The procedure: (§2) The octanol/water partition coefficient (Log P) of the compound of Example 1 was determined by partitioning the compound between octanol and phosphate buffer at pH 7.4 and measuring the concentration of the compound in each layer by LC-MS/MS. […] The compound of Example 1 was tested in the receptor binding and functional cell-based assays carried out in the presence and absence of human serum.

Data set [4] has as its target human AMY1 receptor (CTR/RAMP1) (Homo sapiens, UniProt O60894+P30988). Nature of the data set: Amylin 1 receptor binding. The procedure: (§3) The compound of Example 1 was evaluated against the related amylin 1 (AMY1; CTR/RAMP1) and amylin 3 (AMY3; CTR/RAMP3) receptors. […] Although the compound of Example 1 binds with high affinity to the related AMY1 receptor, this is not anticipated to negatively impact the utility of this molecule as a suitable PET tracer. […] Since the methods used to quantify CGRP receptor occupancy rely primarily on the cerebellar region, the affinity of the compound of Example 1 for AMY1 receptor should not interfere with the use of the PET tracer to accurately determine CGRP receptor occupancy.

In data set [5] the target is T2, human AMY3 receptor (CTR/RAMP3) (Homo sapiens, UniProt O60896+P30988).
T2 sequence (P30988 25-474): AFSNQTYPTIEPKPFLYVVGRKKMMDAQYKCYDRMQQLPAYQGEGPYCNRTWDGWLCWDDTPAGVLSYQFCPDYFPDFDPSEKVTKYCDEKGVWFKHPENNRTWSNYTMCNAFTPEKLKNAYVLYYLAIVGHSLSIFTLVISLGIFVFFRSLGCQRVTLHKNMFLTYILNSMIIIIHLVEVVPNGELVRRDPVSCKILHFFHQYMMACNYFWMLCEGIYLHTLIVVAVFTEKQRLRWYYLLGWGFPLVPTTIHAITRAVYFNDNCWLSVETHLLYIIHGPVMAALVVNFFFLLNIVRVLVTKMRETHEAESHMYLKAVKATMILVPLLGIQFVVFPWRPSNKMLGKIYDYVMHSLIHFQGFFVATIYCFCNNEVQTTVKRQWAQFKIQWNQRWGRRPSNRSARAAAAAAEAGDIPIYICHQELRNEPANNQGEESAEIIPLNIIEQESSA
T2 sequence (O60896 24-148): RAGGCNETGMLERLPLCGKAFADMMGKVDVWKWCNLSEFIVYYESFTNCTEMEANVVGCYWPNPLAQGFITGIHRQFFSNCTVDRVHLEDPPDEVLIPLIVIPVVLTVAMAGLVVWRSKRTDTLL
The data set can be described thus: Amylin 3 receptor binding. The procedure:
as §3

Data set [6] can be described thus: Octanol/water partition coefficient (Log P). The data set is classed as physicochemical. Particulars: octanol / phosphate buffer pH 7.4, LC-MS/MS. The procedure: as §2
The target in another data set is T3, human P-glycoprotein (Homo sapiens, UniProt P08183).
T3 construct: expressed in transfected cells; host or cells: LLC-PK1
The data set can be described thus: Bidirectional transport across LLC-PK1 monolayers, human P-gp. The data set is classed as in vitro ADME. The procedure: (§4) The bidirectional transport of the compound of Example 1 was evaluated across mono-layers of LLC-PK1 cells over-expressing human P-glycoprotein (Ohe et al., 2003).

Data set [7] addresses T4, human P-glycoprotein (P-gp) (Homo sapiens, UniProt P08183).
T4 construct: expressed in transfected cells; host or cells: LLC-PK1
Described as above. The class given is in vitro ADME. As to conditions: LLC-PK1, human P-gp, read-out: B−A/A−B ratio. How it is done: as §4

A further data set has as its system rat P-gp. Nature of the data set: Bidirectional transport, rat P-gp. The class given is in vitro ADME. The procedure: [The source words this procedure for another species and reports this species under the same test.] as §4
Data set [8] relates to African green monkey P-gp. The data set can be described thus: Bidirectional transport, African green monkey P-gp. The data set is classed as in vitro ADME.
A short description of data set [9]: Passive permeability (Papp). The data set is classed as in vitro ADME. Particulars: pig, LLC-PK1, read-out: average apparent permeability coefficient (Papp). How it is done:
as §4

A further data set relates to CGRP receptor. Nature of the data set: PET CGRP receptor occupancy study in rhesus monkey brain. The data set is classed as in vivo. As to conditions: IV bolus plus constant infusion, Hill equation fit, ±SE. How it is done: Baseline PET scans in rhesus monkey have confirmed the uptake and expected regional distribution of the PET tracer of [^11C]-Example 1 in the brain. […] In vivo occupancy studies were carried out with the compound of Example 1 to examine the utility of the PET tracer of [^11C]-Example 1 to establish a drug plasma level/CGRP receptor occupancy relationship. To establish steady plasma levels of drug, the compound of Example 1 was administered as an IV bolus plus constant infusion starting 60 minutes before the PET tracer of [^11C]-Example 1 injection; drug infusion was continued for the duration of the scan. Dynamic PET studies were acquired for 120-min following the PET tracer of [^11C]-Example 1 IV bolus administration. CGRP receptor availability was estimated using data-driven methods to describe the PET tracer of [^11C]-Example 1 plasma-brain kinetics. For each study, the PET tracer of [^11C]-Example 1 plasma concentration was obtained from the measurement of total radioactivity in arterial plasma with correction for the fraction of intact tracer as determined by HPLC analysis.
The absence of a reference region (devoid of CGRP receptor) requires the application of tracer kinetic modeling techniques using the PET tracer of [^11C]-Example 1 arterial plasma concentration in order to accurately quantify CGRP receptor occupancy in rhesus monkey. […]

“And” between values parts separate entries of the source, which are not always exact repeats. Equal entries are not always repeated.

T4 sequence (P08183 whole entry): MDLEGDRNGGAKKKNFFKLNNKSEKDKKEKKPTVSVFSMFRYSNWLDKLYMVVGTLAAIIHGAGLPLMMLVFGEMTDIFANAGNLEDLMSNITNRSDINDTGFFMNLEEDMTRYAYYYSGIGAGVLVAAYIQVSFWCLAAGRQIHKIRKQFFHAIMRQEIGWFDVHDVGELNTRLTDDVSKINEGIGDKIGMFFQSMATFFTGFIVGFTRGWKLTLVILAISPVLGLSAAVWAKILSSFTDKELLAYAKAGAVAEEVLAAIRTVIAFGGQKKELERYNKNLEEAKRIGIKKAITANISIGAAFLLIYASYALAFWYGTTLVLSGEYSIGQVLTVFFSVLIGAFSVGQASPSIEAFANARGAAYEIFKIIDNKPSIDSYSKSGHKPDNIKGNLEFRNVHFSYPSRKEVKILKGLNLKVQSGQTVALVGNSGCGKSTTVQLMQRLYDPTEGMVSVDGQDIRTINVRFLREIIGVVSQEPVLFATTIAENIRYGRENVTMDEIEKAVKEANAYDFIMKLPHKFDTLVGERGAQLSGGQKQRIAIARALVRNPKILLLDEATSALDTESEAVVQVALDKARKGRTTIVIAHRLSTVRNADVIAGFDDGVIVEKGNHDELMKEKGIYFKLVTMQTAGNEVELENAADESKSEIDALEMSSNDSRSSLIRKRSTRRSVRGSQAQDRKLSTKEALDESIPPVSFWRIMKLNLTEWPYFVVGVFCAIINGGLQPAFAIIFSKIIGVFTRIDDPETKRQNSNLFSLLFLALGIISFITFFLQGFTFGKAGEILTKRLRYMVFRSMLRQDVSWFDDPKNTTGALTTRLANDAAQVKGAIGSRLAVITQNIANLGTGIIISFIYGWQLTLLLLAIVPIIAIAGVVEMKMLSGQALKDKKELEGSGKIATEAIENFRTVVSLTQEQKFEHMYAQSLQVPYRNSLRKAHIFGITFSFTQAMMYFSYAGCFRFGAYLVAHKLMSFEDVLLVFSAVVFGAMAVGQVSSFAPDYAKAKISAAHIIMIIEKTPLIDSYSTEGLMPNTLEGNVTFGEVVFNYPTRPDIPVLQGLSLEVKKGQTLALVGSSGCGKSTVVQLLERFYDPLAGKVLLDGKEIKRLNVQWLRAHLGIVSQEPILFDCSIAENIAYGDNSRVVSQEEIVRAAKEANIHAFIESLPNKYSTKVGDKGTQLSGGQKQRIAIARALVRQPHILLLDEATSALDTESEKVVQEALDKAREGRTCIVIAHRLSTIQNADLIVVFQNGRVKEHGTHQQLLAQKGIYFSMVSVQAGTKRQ
T1 sequence (Q16602 23-461): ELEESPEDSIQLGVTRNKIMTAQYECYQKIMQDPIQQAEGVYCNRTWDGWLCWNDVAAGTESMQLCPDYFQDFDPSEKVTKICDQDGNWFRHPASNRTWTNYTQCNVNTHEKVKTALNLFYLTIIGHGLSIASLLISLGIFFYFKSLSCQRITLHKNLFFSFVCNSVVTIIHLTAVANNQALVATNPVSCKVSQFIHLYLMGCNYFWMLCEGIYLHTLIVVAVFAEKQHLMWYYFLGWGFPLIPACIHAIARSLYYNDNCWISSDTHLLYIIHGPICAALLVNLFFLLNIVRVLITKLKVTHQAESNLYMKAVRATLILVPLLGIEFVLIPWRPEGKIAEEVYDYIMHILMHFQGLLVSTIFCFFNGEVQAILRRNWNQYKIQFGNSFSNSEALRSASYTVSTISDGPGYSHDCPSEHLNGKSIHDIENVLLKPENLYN
T1 sequence (O60894 27-148): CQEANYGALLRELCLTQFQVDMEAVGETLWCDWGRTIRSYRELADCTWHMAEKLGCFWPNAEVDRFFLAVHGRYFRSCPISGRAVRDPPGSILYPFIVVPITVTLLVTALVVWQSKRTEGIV
T3 sequence (P08183 whole entry): as the sequence (P08183 whole entry) above
adrenomedullin 2 receptor, CLR-RAMP3, sequence (Q16602 23-461, one chain of several): as the sequence (Q16602 23-461) above
human AMY1 receptor (CTR/RAMP1), sequence (O60894 27-148, one chain of several): as the sequence (O60894 27-148) above

In general, Ki refers to a measure of affinity in units of concentration, obtained from inhibition or displacement. The term IC50 denotes the concentration needed to halve the response being measured. As usually defined, the logP is the decadic logarithm of the partition coefficient of the neutral form, usually between octanol and water. Usually Papp stands for a coefficient for how fast a substance crosses the barrier. For `CN1C[C@@](C)(c2cc(F)cc(F)c2)N(CC(=O)Nc2ccc3c(c2)C[C@@]2(C3)C(=O)Nc3ncccc32)C(=O)C12CCCC2` [Example 1, 2-[(8R)-8-(3,5-Difluorophenyl)-6,8-dimethyl-10-oxo-6,9-diazaspiro[4.5]dec-9-yl]-N-[(2R)-2′-oxo-1,1′,2′,3-tetrahydrospiro[indene-2,3′-pyrrolo[2,3-b]pyridin]-5-yl]acetamide], the Ki in data set [1] was 0.039 nM; in data set [3], 211 nM; in data set [4], 0.6 nM; in [5] it was 212 nM. Also, the IC50 in [2] turned out to be 0.21 nM. The logP in data set [6] turned out to be 3.38. The “P-gp substrate status” value is on record as “not a substrate” at human P-glycoprotein (human P-gp, 5 μM); “weak substrate” on human P-glycoprotein (human P-gp, 1, 0.5 and 0.1 μM); “borderline substrate” in the data set with rat P-gp (5 μM); “weak substrate” in data set [8] (African green monkey P-gp, 1, 0.5 and 0.1 μM). For the same compound, the efflux ratio at 0.1 μM worked out at 3.5 in data set [7] (0.1 μM) and 5.4 in [8] (LLC-PK1, African green monkey P-gp, 0.1 μM, read-out: B−A/A−B ratio). The efflux ratio at 0.5 μM in data set [7] (0.5 μM) came out at 2.9; in [8] (LLC-PK1, African green monkey P-gp, 0.5 μM, read-out: B−A/A−B ratio), 4.1. Besides, the efflux ratio at 1 μM was 3 in data set [7] (1 μM) and 3.9 in data set [8] (LLC-PK1, African green monkey P-gp, 1 μM, read-out: B−A/A−B ratio). Besides, the efflux ratio at 5 μM was 1.7 in data set [7] (5 μM) and 3.1 with rat P-gp (LLC-PK1, read-out: B−A/A−B ratio). Moreover, in data set [9], the apparent permeability coefficient (Papp) worked out at 26 ×10⁻⁶ cm/s. For the same compound, the “Occ50: plasma level for 50% CGRP receptor occupancy” value with CGRP receptor is ~11 nM and 11 ± 3 nM.
